PubChem BioAssay AID2060361 (Molecular Pharmacology Branch, DTP, NCI, 2025)
Where “and” joins values, the source holds several entries; their conditions need not be identical. Identical values can stand only once.

System: 463943-066-T-J2-PDC tumor spheroids with HUVEC/MSC, viability
Experiment: Anticancer human tumor 463943-066-T-J2-PDC patient-derived colon adenocarcinoma cell line growth inhibition [TAK]
Conditions: for viability, T/C: stronger effect = lower value
Excerpt: Combinatorial screen of targeted agents with TAK-243 and ipatasertib in multi-cell type tumor spheroids
A high-throughput screen of multi-cell type tumor spheroids was designed to identify active combinations of targeted small molecules and TAK-243 or ipatasertib. Complex spheroids include a stromal component modeled by human endothelial cells (HUVEC) and fibroblasts modeled by human mesenchymal stem cells (MSCs). The concentration ranges selected for each drug and investigational agent were based upon clinically achievable concentrations if the clinical Cmax of the agent was known.
Compounds. The drugs and investigational agents: TAK-243 (785004), ipatasertib (767898), everolimus (733504), selumetinib (741078), bortezomib (756655), trametinib (758246), ixazomib (758254), vemurafenib (761431), dabrafenib (764134), sapanisertib (764658), alpelisib (765974), and copanlisib (816437), were obtained from the National Cancer Institute (NCI) Developmental Therapeutics Program Chemical Repository. The FDA-approved anticancer drug set is available from the NCI Developmental Therapeutics Program. […] The stock solutions were prepared in dimethyl sulfoxide (DMSO, Sigma-Aldrich, St. Louis, MO, cat. D2650) at 800-fold the tested concentration and stored at -70 degrees C prior to their use. All drugs and investigational agents were tested over a range starting from a high concentration at or near the clinical Cmax and decreasing in half-log increments. If the clinical Cmax for an agent had not been determined, the highest concentration tested was 10 microM.
NCI60 Cell Culture. NCI60 cell lines were obtained from the NCI Developmental Therapeutics Program Tumor Repository. For each lot of cells, the Repository performed Applied Biosystems AmpFLSTR Identifiler testing with PCR amplification to confirm consistency with the published Identifier STR profile for each cell line. Cells were kept in continuous culture for no more than 20 passages. The optimal seeding densities for each of the cell lines at each time point assessed were determined prior to performing the concentration response studies. Briefly, the NCI60 human tumor lines were grown as monolayers in RPMI 1640 medium supplemented with 10% FBS and 2 mmol/L L-glutamine.
An additional 2 lines were from the NCI60 cell line panel including melanomas, MALME-3M and SK-MEL-2. Pooled donor human umbilical vein endothelial cells (HUVEC, Lonza, cat. CC-2519) and human mesenchymal stem cells (hMSC, Lonza, cat. PT-2501) were purchased from Lonza (Walkersville, MD).
PDMR cell lines were grown in complete medium (DC medium): Dulbecco's modified Eagle's medium (DMEM)/F12 supplemented with 5% fetal bovine serum (FBS), 2 mM L-glutamine, 100 U/mL penicillin and 100 µg/ml streptomycin, 0.4 µg/ml hydrocortisone, 10 ng/ml epidermal growth factor (EGF) recombinant human protein, 24 µg/mL adenine, and 0.1 mg/mL primocin. During culture from frozen stock vials, PDMR cells were cultured in the same medium containing 10 µM Y-27632 (see Table 3). The PDCs were cultured in complete DMEM/F12 media without 10 microM Y-27632 dihydrochloride for at least two passages prior to the screen. The pooled donor HUVEC and hMSC were cultured in endothelial cell growth medium 2 (PromoCell, Heidelberg, Germany, cat. C-22011) and mesenchymal stem cell growth medium 2 (PromoCell, cat. C-28009), respectively. For all experiments, HUVEC and hMSC were used at passages </=5.
For the pre-screen, cell seeding densities were determined from a titration spanning the range from 5,000 to 313 cells per well. The mct-spheroids including 60% malignant cells, 25% HUVEC and 15% MSC dispensed as a mixture into U-bottom Ultra-Low Attachment 384-well plates (Corning, NY)
High-throughput Drug Combination Screening.
Prior to their inoculation into 384-well plates, malignant cells, HUVEC, and hMSC were removed from T flasks using TrypLE express (Thermo Fisher Scientific, cat. 12605036) and harvested by centrifugation for 5 min at 233 x g. […]
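Also: spheroids exposed to drugs for seven days.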
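For viability, T/C in this document: 100% = DMSO vehicle control wells.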

CC(=O)Nc1cccc(-n2c(=O)n(C3CC3)c(=O)c3c(Nc4ccc(I)cc4F)n(C)c(=O)c(C)c32)c1
viability, T/C (compound 94.9 pM): 104% and 102% | viability, T/C (compound 0.0003 µM): 93.3% and 98.1% | viability, T/C (compound 0.000949 µM): 89.2% and 86.9% | viability, T/C (compound 0.003 µM): 86.5% and 68.9% | viability, T/C (compound 0.00949 µM): 81.9% and 67.4% | viability, T/C (compound 0.03 µM): 67.2% and 59.4% | IC50 (curve of compound): > 30 nM

CC(C)(C)c1nc(-c2cccc(NS(=O)(=O)c3c(F)cccc3F)c2F)c(-c2ccnc(N)n2)s1
viability, T/C (compound 0.0316 µM): 116% and 108% | viability, T/C (compound 0.1 µM): 110% and 108% | viability, T/C (compound 0.316 µM): 113% and 103% | viability, T/C (compound 1 µM): 112% and 109% | viability, T/C (compound 3.16 µM): 109% and 116% | viability, T/C (compound 10 µM): 104% and 107% | IC50 (curve of compound): > 10000 nM

CC(C)CC(NC(=O)C(Cc1ccccc1)NC(=O)c1cnccn1)B(O)O (stereo not drawn)
viability, T/C (compound 31.6 pM): 106% and 127% | viability, T/C (compound 0.0001 µM): 109% and 112% | viability, T/C (compound 0.000316 µM): 97.4% and 97.8% | viability, T/C (compound 0.001 µM): 87.7% and 98.7% | viability, T/C (compound 0.00316 µM): 90.2% and 85.5% | viability, T/C (compound 0.01 µM): 70.7% and 80.7% | IC50 (curve of compound): > 10 nM

CC(C)CC(NC(=O)CNC(=O)c1cc(Cl)ccc1Cl)B1OC(=O)CC(CC(=O)O)(C(=O)O)O1 (stereo not drawn)
viability, T/C (compound 0.000316 µM): 109% and 95.1% | viability, T/C (compound 0.001 µM): 108% and 96.2% | viability, T/C (compound 0.00316 µM): 122% and 97.5% | viability, T/C (compound 0.01 µM): 100% and 95.3% | viability, T/C (compound 0.0316 µM): 82.2% and 73.6% | viability, T/C (compound 0.1 µM): 81.4% and 74.8% | IC50 (curve of compound): > 100 nM

CC(C)NCC(C(=O)N1CCN(c2ncnc3c2C(C)CC3O)CC1)c1ccc(Cl)cc1 (stereo not drawn)
viability, T/C (compound 0.3 µM): 94.2% [middle of 10 runs] | viability, T/C (compound 3 µM): 86.9% [middle of 10 runs] | IC50 (compound alone, run of 02/28/2020): > 30000 nM

CC(C)n1nc(-c2ccc3oc(N)nc3c2)c2c(N)ncnc21
viability, T/C (compound 0.000316 µM): 115% and 102% | viability, T/C (compound 0.001 µM): 103% | viability, T/C (compound 0.00316 µM): 93.7% and 84.9% | viability, T/C (compound 0.01 µM): 75.8% and 92.2% | viability, T/C (compound 0.0316 µM): 83.8% and 77.3% | viability, T/C (compound 0.1 µM): 82.8% and 76.9% | IC50 (curve of compound): > 100 nM

CCCS(=O)(=O)Nc1ccc(F)c(C(=O)c2c[nH]c3ncc(-c4ccc(Cl)cc4)cc23)c1F
viability, T/C (compound 0.316 µM): 108% and 97.6% | viability, T/C (compound 1 µM): 107% and 112% | viability, T/C (compound 3.16 µM): 109% and 126% | viability, T/C (compound 10 µM): 95.6% and 103% | viability, T/C (compound 31.6 µM): 122% and 118% | viability, T/C (compound 100 µM): 122% and 124% | IC50 (curve of compound): > 100000 nM

COC1CC2CCC(C)C(O)(O2)C(=O)C(=O)N2CCCCC2C(=O)OC(C(C)CC2CCC(OCCO)C(OC)C2)CC(=O)C(C)C=C(C)C(O)C(OC)C(=O)C(C)CC(C)C=CC=CC=C1C (stereo not drawn)
viability, T/C (compound 0.000316 µM): 101% and 107% | viability, T/C (compound 0.001 µM): 91% and 91.9% | viability, T/C (compound 0.00316 µM): 87.1% and 85.7% | viability, T/C (compound 0.01 µM): 83.7% and 89.1% | viability, T/C (compound 0.0316 µM): 85.6% and 91.5% | viability, T/C (compound 0.1 µM): 76.8% and 86% | IC50 (curve of compound): > 100 nM

COc1c(OCCCN2CCOCC2)ccc2c3n(c(=NC(=O)c4cnc(N)nc4)nc12)CCN3
viability, T/C (compound 0.00316 µM): 93.7% and 101% | viability, T/C (compound 0.01 µM): 88.3% and 90.3% | viability, T/C (compound 0.0316 µM): 84.4% and 86.9% | viability, T/C (compound 0.1 µM): 80.3% and 85% | viability, T/C (compound 0.316 µM): 77.4% and 77.2% | viability, T/C (compound 1 µM): 68.1% and 72.1% | IC50 (curve of compound): > 1000 nM

Cc1nc(NC(=O)N2CCCC2C(N)=O)sc1-c1ccnc(C(C)(C)C(F)(F)F)c1 (stereo not drawn)
viability, T/C (compound 0.0316 µM): 96.2% and 102% | viability, T/C (compound 0.1 µM): 103% and 91.1% | viability, T/C (compound 0.316 µM): 87.7% and 90.1% | viability, T/C (compound 1 µM): 78.6% and 84.6% | viability, T/C (compound 3.16 µM): 81.1% and 78.6% | viability, T/C (compound 10 µM): 78.6% and 73.7% | IC50 (curve of compound): > 10000 nM

Cn1cnc2c(F)c(Nc3ccc(Br)cc3Cl)c(C(=O)NOCCO)cc21
viability, T/C (compound 0.00949 µM): 101% and 106% | viability, T/C (compound 0.03 µM): 99.1% and 108% | viability, T/C (compound 0.0949 µM): 77.1% and 84% | viability, T/C (compound 0.3 µM): 85.9% and 76% | viability, T/C (compound 0.949 µM): 64.1% and 78.2% | viability, T/C (compound 3 µM): 62.4% and 57.4% | IC50 (curve of compound): > 3000 nM

COC1CC2CCC(C)C(O)(O2)C(=O)C(=O)N2CCCCC2C(=O)OC(C(C)CC2CCC(OCCO)C(OC)C2)CC(=O)C(C)C=C(C)C(O)C(OC)C(=O)C(C)CC(C)C=CC=CC=C1C (stereo not drawn) + CC(C)NCC(C(=O)N1CCN(c2ncnc3c2C(C)CC3O)CC1)c1ccc(Cl)cc1
IC50 (curve of first compound, second compound 0.3 µM): > 100 nM | IC50 (curve of first compound, second compound 0.949 µM): > 100 nM | IC50 (curve of first compound, second compound 3 µM): > 100 nM | IC50 (curve of first compound, second compound 9.49 µM): > 100 nM | IC50 (curve of first compound, second compound 30 µM): > 100 nM | viability, T/C (second compound 0.3 µM, first compound 0.000316 µM): 91.7% | viability, T/C (second compound 0.3 µM, first compound 0.001 µM): 86.2% | viability, T/C (second compound 0.3 µM, first compound 0.00316 µM): 90.4% | viability, T/C (second compound 0.3 µM, first compound 0.01 µM): 74.8% | viability, T/C (second compound 0.3 µM, first compound 0.0316 µM): 86.5% | viability, T/C (second compound 0.3 µM, first compound 0.1 µM): 77.3% | viability, T/C (second compound 0.949 µM, first compound 0.000316 µM): 85.5% | viability, T/C (second compound 0.949 µM, first compound 0.001 µM): 90.9% | viability, T/C (second compound 0.949 µM, first compound 0.00316 µM): 83.2% | viability, T/C (second compound 0.949 µM, first compound 0.01 µM): 76.4% | viability, T/C (second compound 0.949 µM, first compound 0.0316 µM): 78.8% | viability, T/C (second compound 0.949 µM, first compound 0.1 µM): 80.7% | viability, T/C (second compound 3 µM, first compound 0.000316 µM): 86% | viability, T/C (second compound 3 µM, first compound 0.001 µM): 91.3% | viability, T/C (second compound 3 µM, first compound 0.00316 µM): 81.4% | viability, T/C (second compound 3 µM, first compound 0.01 µM): 80.3% | viability, T/C (second compound 3 µM, first compound 0.0316 µM): 78.2% | viability, T/C (second compound 3 µM, first compound 0.1 µM): 78.3% | viability, T/C (second compound 9.49 µM, first compound 0.000316 µM): 84.8% | viability, T/C (second compound 9.49 µM, first compound 0.001 µM): 76.7% | viability, T/C (second compound 9.49 µM, first compound 0.00316 µM): 81.5% | viability, T/C (second compound 9.49 µM, first compound 0.01 µM): 76.6% | viability, T/C (second compound 9.49 µM, first compound 0.0316 µM): 80% | viability, T/C (second compound 9.49 µM, first compound 0.1 µM): 78.6% | viability, T/C (second compound 30 µM, first compound 0.000316 µM): 85.8% | viability, T/C (second compound 30 µM, first compound 0.001 µM): 79.9% | viability, T/C (second compound 30 µM, first compound 0.00316 µM): 82.8% | viability, T/C (second compound 30 µM, first compound 0.01 µM): 78.8% | viability, T/C (second compound 30 µM, first compound 0.0316 µM): 73.1% | viability, T/C (second compound 30 µM, first compound 0.1 µM): 80.8%
